Data on ten compounds can be found in patent US6537567B1, “Tissue-engineered tubular construct having circumferentially oriented smooth muscle cells” (Massachusetts Institute of Technology, priority 1997, dated 2003).

One assay relates to Segments of neo-artery. Nature of the assay: Pharmacologic reactivity of vessel segments in myographs. Conditions: for constriction response of vessel segment: prostaglandin F2α 10^−5 to 10^−4 M, serotonin 10^−6 to 10^−5 M, endothelin-1 10^−7, resting tension four grams. The class given is cell-based. The protocol: Segments of neo-artery three mm in length were assessed for reactivity to pharmacologic agents using techniques previously reported. Briefly, segments were placed in physiological saline bubbled with 95% O2 and 5% CO2, and mounted on tungsten wires in conventional myographs connected to a pen recorder. Freshly excised segments of rabbit abdominal aorta were used as controls. Vessels were maintained at a resting tension of four grams for 30 minutes prior to testing. Vessels were exposed to indomethacin 10^−5 M, LNNA 10^−4 M, norepinephrine 10^−6 M, prostaglandin F2α10^−5 to 10^−4 M, papavarine 10^−6 to 10^−5 M, serotonin 10^−6 to 10^−5 M, endothelin-1 10^−7 and potassium 30-60 mM. […] In some experiments, the magnitude of the constriction response was augmented by prior exposure to indomethacin.

In a further assay the test system is smooth muscle cells. Nature of the assay: Growth of smooth muscle cells under externally applied physical forces. It is filed as cell-based. Conditions: response to externally applied physical forces such as pulsatile force. The protocol:
For use in the methods of the present invention, several variations on standard cell growth media have been developed. […] In addition, for growing any cells which normally produce a substantial collagenous extracellular matrix, an “enhanced cell growth medium” has been developed which comprises standard cell growth medium, as described above, supplemented with 1-10 mM, preferably 5 mM, HEPES buffer; 0.01-0.1 g/L, preferably 0.02-0.06 g/L, Vitamin C; 0.01-0.1 g/L, preferably 0.02-0.06 g/L, proline; 0.01-0.1 g/L, preferably 0.02-0.06 g/L, glycine; 0.01-0.1 g/L, preferably 0.02-0.06 g/L, alanine; and 0.5-5.0 μg/L, preferably 1.0-3.0 μg/L, of a copper salt (e.g., CuSO4). Because Vitamin C has a half-life of only 6-8 hours at 37° C. in culture medium, Vitamin C is preferably replenished daily to enhance collagen synthesis by the cells. In addition, proline, glycine, and alanine are provided in excess to provide adequate amounts of these amino acids for the synthesis of collagen and other extracellular matrix proteins such as elastin. Copper ions are a necessary co-factor for elastin synthesis and, therefore, a source of copper ions (e.g., CuSO4) is preferably included in media used to grow elastin-rich tissues. For the growth of endothelial cells, it is preferred that CS be used rather than FBS. […]

The test system of another assay is smooth muscle cell. Particulars: cited from earlier work.
For a further assay, the system named is aortic endothelial cell. Particulars: cited from earlier work.

As for `COc1ccc2c(c1)c(CC(=O)O)c(C)n2C(=O)c1ccc(Cl)cc1` [indomethacin], the “effect of prior exposure on magnitude of the constriction response” value in the assay with Segments of neo-artery (indomethacin 10^−5 M, in some experiments) is listed as “augmented”.

Regarding `COc1ccc(Cc2nccc3cc(OC)c(OC)cc23)cc1OC` [papavarine], the “relaxation response of vessel segment” value with Segments of neo-artery (papavarine 10^−6 to 10^−5 M) is recorded as “relaxation”.

`NCCc1c[nH]c2ccc(O)cc12` [serotonin]: the “constriction response of vessel segment” value in the assay on Segments of neo-artery is on record as “reproducible constriction”.

For `[H]/N=C(/N)N[C@H]1[C@H](O)[C@@H](O)[C@H](O[C@@H]2O[C@@H](C)[C@](O)(C=O)[C@H]2O[C@@H]2O[C@@H](CO)[C@H](O)[C@@H](O)[C@@H]2NC)[C@@H](N/C(N)=N\[H])[C@@H]1O` [streptomycin], the “effect on development of the desired smooth muscle phenotype” value in the assay with smooth muscle cells is listed as “tends to inhibit the development of the desired phenotype”.

In the case of PDGF, the “effect on smooth muscle cell proliferation” value in the assay on smooth muscle cell is listed as “stimulate smooth muscle cell proliferation”.

As for VEGF, in the assay on aortic endothelial cell, the “effect on aortic endothelial cell growth” value is reported as “stimulate aortic endothelial cell growth”.

Consider aFGF: acidic fibroblast growth factor, for which, in the assay on smooth muscle cell, the “effect on smooth muscle cell proliferation” value is “stimulate smooth muscle cell proliferation”.

As for bFGF: basic fibroblast growth factor, in the assay on smooth muscle cell, the “effect on smooth muscle cell proliferation” value is “stimulate smooth muscle cell proliferation”. For the same compound, the “effect on aortic endothelial cell growth” value in the assay with aortic endothelial cell is “stimulate aortic endothelial cell growth”.

With “endothelin-1 (CSCSSLMDKECVYFCHLDIIW; Endothelin-1; UniProt P05305 53-73, looked up)”, the “constriction response of vessel segment” value with Segments of neo-artery is listed as “reproducible constriction”.

As to prostaglandin F2α, the “constriction response of vessel segment” value in the assay on Segments of neo-artery is “reproducible constriction”.
